Results published in the SangsterLogP compilation.

Test: method code SF, from PMID: 1610484
Conditions: not given

Structure (SMILES)	logP
COCCCNC(=S)Cn1cnc([N+](=O)[O-])n1	0.63
CSCCCNC(=O)Cn1cnc([N+](=O)[O-])n1	0.26
COCCNC(=S)Cn1cnc([N+](=O)[O-])n1	0.25
CSCCNC(=O)CCn1cnc([N+](=O)[O-])n1	-0.07
COCCNC(=O)C(F)(F)Cn1cnc([N+](=O)[O-])n1	-0.29
O=C(NCCCO)C(F)(F)Cn1cnc([N+](=O)[O-])n1	-0.63
COCCNC(=O)CCn1cnc([N+](=O)[O-])n1	-0.65
O=C(Cn1cnc([N+](=O)[O-])n1)NCCO	-1.37
CSCCNC(=O)C(F)(F)Cn1cnc([N+](=O)[O-])n1	0.4
COCCCNC(=O)C(F)(F)Cn1cnc([N+](=O)[O-])n1	0.01
CSCCNC(=O)Cn1cnc([N+](=O)[O-])n1	-0.1
CSCCCNC(=O)C(F)(F)Cn1cnc([N+](=O)[O-])n1	0.76

Same assay, conditions: pH 7.4

Structure (SMILES)	logD
COCCNC(=O)Cn1cnc([N+](=O)[O-])n1	-0.77
COCCCNC(=O)Cn1cnc([N+](=O)[O-])n1	-0.51
